Test results as given in patent US20180153870A1, “BIPERIDEN FOR TREATING CANCER” (Universitätsklinikum Hamburg-Eppendorf, priority 2015, published 2018).

Columns and labels:
HPDE = test: MTT proliferation assay, HPDE reference cell line; type: cell-based, human; details: for reaction of proliferation: mepazine, other doses of biperiden or a combination of mepazine and biperiden
Method: (§1) The cell lines used for the proliferation assays were cultured in different media. The cell lines Pan-1, Panc-2 and BxPC3, which have been derived from the human ductal pancreatic adenocarcinoma (PDAC), were cultured in Dulbecco's modified Eagle medium (DMEM) (Sigma), that was supplemented with 1% penicillin/streptomycin (Life technologies/GIBCO 15140-122) and 10% fetal bovine serum (Life technologies/GIBCO 100500-064). The cell line L3.6pl was cultured in RPMI 1640 medium (Life technologies/GIBCO 72400-21) that was supplemented with 1% penicillin/streptomycin and 10% fetal bovine serum. A sub-clone of the cell line L3.6pl, that was designated L3.6pl res, was resistant to gemcitabine and was also cultured in RPMI 1640 medium (Life technologies/GIBCO 72400-21) that was supplemented with 1% penicillin/streptomycin, 10% fetal bovine serum and 2 μM gemcitabine (GEMZAR, Lily). The human immortalized, non-malignant cell line of the ductal pancreatic epithelium (HPDE) was cultured in keratinocyte-SFM (Life technologies/GIBCO) that was supplemented with 10% fetal bovine serum, 1% penicillin/streptomycin and 1% epidermal growth factor (EGF).
(§2) The proliferation rates of the cell lines were determined after stimulation with (i) biperiden, (ii) mepazine, and (iii) stimulation with both active ingredients. For this purpose, cells were seeded in plates with 96 wells at 5000 cells per well and incubated overnight at 37° C. and 5% CO2. Next morning, the blanket values were measured at 490 nm in an ELISA reader (FLUOstar Omega, BMG LABTECH) after the addition of 100 μL medium and 20 μL MTT substrate (CellTiter 96 AQueous One Solution Cell Proliferation Assay, Promega). Biperiden was added in increasing concentrations (3.71 μg/ml, 11.1 μg/ml und 29.6 μg/ml) in the form of solutions of biperiden hydrochloride (B5311 SIGMA-Aldrich, USA) and DMSO. […] The ex-tinction was measured every 24 hours during a period of 72 hours.
(§3) The normal distribution of the results was analyzed by Kolgomorov-Smirnov test and Shapiro-Wilk test. Non-parametric variables were analyzed using the Mann-Whitney-U test. […]

L3.6pl wt = test: MTT proliferation assay, L3.6pl wt; type: cell-based, human
Method: (§4) The cell lines used for the proliferation assays were cultured in different media. The cell lines Pan-1, Panc-2 and BxPC3, which have been derived from the human ductal pancreatic adenocarcinoma (PDAC), were cultured in Dulbecco's modified Eagle medium (DMEM) (Sigma), that was supplemented with 1% penicillin/streptomycin (Life technologies/GIBCO 15140-122) and 10% fetal bovine serum (Life technologies/GIBCO 100500-064). The cell line L3.6pl was cultured in RPMI 1640 medium (Life technologies/GIBCO 72400-21) that was supplemented with 1% penicillin/streptomycin and 10% fetal bovine serum. […]
(§5) The proliferation rates of the cell lines were determined after stimulation with (i) biperiden, (ii) mepazine, and (iii) stimulation with both active ingredients. […] Next morning, the blanket values were measured at 490 nm in an ELISA reader (FLUOstar Omega, BMG LABTECH) after the addition of 100 μL medium and 20 μL MTT substrate (CellTiter 96 AQueous One Solution Cell Proliferation Assay, Promega). […] The ex-tinction was measured every 24 hours during a period of 72 hours.
as §3

Panc-2 = test: MTT proliferation assay, Panc-2; type: cell-based, human
Method: as §1, §2, §3

[1] = tested on: pancreatic cancer cell lines; test: MTT proliferation assay, all pancreatic cancer cell lines; type: cell-based, human; details: in the presence of biperiden, mepazine or a combination
Method: as §4, §5, §3

human Panc-1 tumor cells = test: Mouse xenograft model with subcutaneous Panc-1 tumor cells; type: in vivo, pfp−/−/rag2−/− double knockout mice; details: for size of the subcutaneous tumor: daily i.p. treatment, 16 mg/kg mepazine; for size of the subcutaneous tumor / tumor sizes compared to the control groups: 10 mg/kg biperiden; for tumor sizes compared to the control groups: daily i.p., 16 mg/kg mepazine or both
Text: For the mouse xenograft model pfp−/−/rag2−/− double knockout mice were used. […] Owing to the inactivated rag2 gene, the mouse lacks mature T or B lymphocytes. The mouse model was developed by the Taconic Institute (Quality Laboratory Animals and Services for Research, DK8680 Ry, Taconic Europe, Denmark) by crossing the PFPN12 mouse model with the RAGN12 mouse model. This model was back crossed over 12 generations (N12) with C57BL/6NTac, and the colony was maintained by homozygous pairing. The mouse model was used in the course of the present invention with PDAC cells of the cell line Panc-1, which were administered subcutaneously. 12 days after subcutaneous injection of 10^6 human Panc-1 tumor cells, the mice were treated daily either with 16 mg/kg mepazine i.p. (n=10), 10 mg/kg biperiden (n=10) i.p. or with a combination of both active ingredients, that is with 16 mg/kg mepazine and 10 mg/kg biperiden (n=10) i.p. The control group (n=10) was not treated. The daily treatment was performed under identical, standardized conditions. The same 3-days-cycle was used over the complete period of the study: day one comprised the injection of the medication and the determination of the bodyweight by weighing. Day 2 comprised the injection of the medication and the determination of the subcutaneous tumor growth with a caliper. Day 3 comprised the injection of the medication and neuroscoring. […] After euthanizing, the subcutaneous tumors were removed from the mice. Prior to the surgery, the body of the mouse was disinfected with ethanol. The skin above the tumor was carefully incised, and the tumor was surgically removed from the adjacent tissue. After removal, the tumor was weighed and measured. For evaluation only mice were used which had developed a tumor. […] The volumes of the subcutaneous tumors were measured with a caliper after removal and calculated using the formula length× width^2 as described in [8]. […] The average tumor size in the control group was 729.33 mm^3±186.25 mm^3 compared to 130.43 mm^3±63.96 mm^3 in the group that was treated with mepazine (p=0.002; one-sided Fisher's exact test).

[2] = tested on: esophageal carcinoma cell lines OE19, OE33 und KYSE 140; test: MTT proliferation assay, esophageal carcinoma cell lines; type: cell-based, human; details: OE19, OE33, KYSE 140; concentrations as in Example 1
Method: The proliferation rates of the cell lines were determined after stimulation with (i) biperiden, (ii) mepazine, and (iii) stimulation with both active ingredients. For this purpose, cells were seeded in plates with 96 wells at 5000 cells per well and incubated overnight at 37° C. and 5% CO2. Next morning, the blanket values were measured at 490 nm in an ELISA reader (FLUOstar Omega, BMG LABTECH) after the addition of 100 μL medium and 20 μL MTT substrate (CellTiter 96 AQueous One Solution Cell Proliferation Assay, Promega). Biperiden was added in increasing concentrations (3.71 μg/ml, 11.1 μg/ml und 29.6 μg/ml) in the form of solutions of biperiden hydrochloride (B5311 SIGMA-Aldrich, USA) and DMSO. Mepazine was added in increasing concentrations (15 μM and 25 μM) in the form of solutions of mepazine hydrochloride (MALT1 Inhibitor II, Calbiochem Merck, Millipore Billerica, USA). Combinations of both mepazine and biperiden were added in the following concentrations: 15 μM mepazine+3.71 μg/ml biperiden; 25 μM mepazine+3.71 μg/ml biperiden. The ex-tinction was measured every 24 hours during a period of 72 hours. […]

Compound	proliferation (HPDE; 11.1 μg/ml biperiden)	reaction of proliferation (HPDE)	reduction in the proliferation rate (L3.6pl wt; 29.7 μg/ml biperiden, p=0.02) [%]	reduction of proliferation rate (Panc-2; 29.6 μg/ml biperiden, trend, p=0.077) [%]	reduction in the proliferation rate [1]	size of the subcutaneous tumor (human Panc-1 tumor cells; Panc-1 xenograft)	tumor sizes compared to the control groups (human Panc-1 tumor cells; Panc-1 xenograft)	compatibility of administration (human Panc-1 tumor cells; mice, 10 mg/kg biperiden i.p. daily)	motor activity compared to mice that received mepazine or no medication (human Panc-1 tumor cells; mice, 10 mg/kg biperiden i.p. or 16 mg/kg mepazine and 10 mg/kg biperiden i.p., daily)	proliferation of esophageal carcinoma cell lines [2]	reduction in the proliferation rate (L3.6pl wt; 25 μM mepazine, p=0.004) [%]	reduction of proliferation rate (Panc-2; 15 μM mepazine, p=0.008) [%]	reduction of proliferation rate (Panc-2; 25 μM mepazine, p=0.001) [%]	average tumor size (human Panc-1 tumor cells; Panc-1 xenograft, 16 mg/kg mepazine i.p. daily, ±63.96 mm^3, control 729.33 mm^3±186.25 mm^3, p=0.002) [mm^3]
OC(CCN1CCCCC1)(c1ccccc1)C1CC2C=CC1C2 (stereo not shown) [biperiden]	reduced slightly	no statistically significant reaction	96.4	98.2	massive reduction	significantly reduced	visibly smaller	good compatibility	motorically more active	inhibited proliferation of esophageal carcinoma cell lines significantly	–	–	–	–
CN1CCCC(CN2c3ccccc3Sc3ccccc32)C1 (stereo not shown) [mepazine]	–	no statistically significant reaction	–	–	massive reduction	significantly reduced	visibly smaller	–	–	inhibited proliferation of esophageal carcinoma cell lines significantly	97.9	56.1	86.9	130.43
